{"source": "paper PMC7146544", "about": "“Dual Plasmepsin-Targeting Antimalarial Agents Disrupt Multiple Stages of the Malaria Parasite Life Cycle” (Cell Host & Microbe, 2020)", "key": {"P. berghei": {"test_system": "P. berghei", "assay": "Dose ranging test for P. berghei infection in mice", "assay_type": "in vivo, Plasmodium berghei", "procedure": "Control mice were treated orally with chloroquine for 4 days under q.d. dosing regimen at 10 mpk/day. From day 2 to 30 post infection, parasitemia was measured daily by flow cytometry and microscopy, as described above. Survival of animals to day 30 post infection, with no detectable parasites in the peripheral blood, were considered to be cured (i.e., 100% efficacy)."}, "P. falciparum": {"test_system": "P. falciparum", "assay": "P. falciparum humanized NOD-scid IL2R_null mouse model", "procedure": "Compounds were tested in the murine P. falciparum SCID model ([Angulo-Barturen et al., 2008]). […] The mice were intravenously infected with 2 × 10^7 P. falciparum Pf3D7-infected erythrocytes (day 0) ([Angulo-Barturen et al., 2008]). On day 3 after infection, mice were randomly allocated to treatments that were administered once a day for 4 consecutive days (n = 3 mice) by oral gavage at 10 mL/kg. Parasitemia was measured by microscopy. Chimerism was monitored by flow cytometry using anti-murine erythrocyte TER119 monoclonal antibody (PharMingen, San Diego, CA) and SYTO-16 and then analyzed by flow cytometry in serial 2 μL blood samples taken every 24 h until assay completion."}, "[1]": {"assay": "Bioanalytical determination of WM382 in mouse blood by LC-MS/MS", "assay_type": "in vivo", "conditions": "SCID (huSCID), whole blood, po, huSCID mice", "procedure": "Serial samples of peripheral blood (25 μL) were taken from the mice of the efficacy experiment in the murine P. falciparum SCID model by tail puncture at 1, 2, 4, 6 and 24 h post first and last drug administration. The samples were immediately lysed by mixing with 25 μL of water, immediately frozen on dry ice and stored at −80°C until bioanalysis (carried out at SBQ, Reinach, Switzerland). The compounds were extracted from 10 μL of each lysate with 50 μL acetonitrile containing the internal standards (reserpine at 100 ng/mL). After a centrifugation step at 50000 g for 10 min, an aliquot of 50 μL of the supernatant was transferred to an autosampler vial and analyzed. The compounds were quantified by LC-MS/MS in the selected reaction monitoring mode using HESI ionization in positive ion mode, using a TSQ Quantum Access Mass spectrometer (Thermo Fisher Scientific, San Jose, CA, USA). The compound concentration versus time data was determined."}, "P. berghei liver stages": {"test_system": "P. berghei liver stages", "assay": "In vitro analysis of P. berghei liver parasites in HepG2 cells", "assay_type": "cell-based, Plasmodium berghei", "conditions": "100 nM from 24 hpi", "procedure": "To infect cells, freshly isolated PbmCherryLuci salivary gland sporozoites were resuspended in complete medium and 10^4 sporozoites added to each well (MOI 0.34) before spinoculation at 500 x g for 3 min. Sporozoites were allowed to infect cells for 3 h before washing with complete medium. […] The compound containing medium was changed the next morning before 48 hpi to prevent removal of detached cells and merosomes in the supernatant at later time points ([Sturm et al., 2006]). To measure inhibition of parasitised cell detachment in the treated cultures, each well was imaged for mCherry at 20x magnification using an Opera Phenix High Content Screening System (PerkinElmer) at 48 hpi (live cell microscopy) and again at 65 hpi following fixation with 4% formalin in PBS, and the number of mCherry^+ parasites counted using the Columbus Image Data Storage and Analysis System (PerkinElmer). Cell detachment was calculated as the percent of parasites lost from the monolayer between 48 – 65 hpi. The culture supernatant containing merosomes and detached parasitised cells from each well was collected at 65 hpi, washed once in complete media by centrifugation at 500 x g for 3 min, then i.v. injected into individual male Swiss mice. Daily Giemsa stained thin blood smears were monitored for patent blood infection as described previously.\nFollowing fixation at 65 hpi, infected hepatocyte monolayers were blocked and permeabilized in PBS containing 1% BSA and 0.1% Triton X-100 (blocking buffer) for 1 h before incubation with polyclonal Goat-anti-PbUIS4 (1:500) and Rabbit-anti-PyMSP1_19 antiserum (1:200) for 1 h. After 3 washes in PBS to remove primary antibodies, wells were incubated sequentially with secondary antibodies recognizing Goat IgG (Alexa Fluor 488; 1:500) and then Rabbit IgG (Alexa Fluor 633; 1:500) for 1 h, separated by 3 washes with PBS. All antibody incubations were performed in blocking buffer at room temperature protected from light, and 2 μg/mL DAPI was added to the last incubation with secondary antibody to stain DNA. The center of each well was then imaged across a 12 μm z stack at 63x magnification using an Opera Phenix (PerkinElmer) for the above fluorochromes as well as mCherry to reveal parasite cytoplasm. Data was transferred to Columbus (PerkinElmer) and at least 70 parasites per condition were then manually scored based on a previously described staging system ([Graewe et al., 2011]). […] More extensive membrane invaginations surrounding individual nuclei with well segmented parasite cytoplasm and intact UIS4 staining were scored as ‘merozoite’ stage. ‘Egressed’ parasites were classified as either well segmented merozoite stages with evidence for PVM breakdown, or largely intact PVM vacuoles in which significant loss of parasite material was evident (Figure S6)."}}, "note": "Entries after “also recorded” stand apart in the source; their conditions may differ. Like-named read-outs stand apart in the source and are kept apart here."}
{"smiles": "CCC1(CC)CC(=O)N([C@@H]2CCOc3ccc(C(=O)N[C@H]4CC(C)(C)Oc5ccccc54)cc32)C(=N)N1", "note": "[WM382]", "values": [{"measurement": "day post-infection from which parasites were detected", "setting": "P. berghei; WM382 1 mpk oral b.i.d. 4 days", "value": 2, "unit": "days"}, {"measurement": "day post-infection after which parasites were detectable", "setting": "P. berghei; WM382 3 mpk oral b.i.d. 4 days", "value": "> 12", "unit": "days"}, {"measurement": "outcome to day 30 post-infection", "setting": "P. berghei; WM382 3 mpk oral b.i.d. 4 days, n = 4", "value": "one mouse remaining parasite-free on day 30 pi"}, {"measurement": "outcome to day 30 post-infection", "setting": "P. berghei; WM382 10 mpk oral b.i.d. 4 days", "value": "remained parasite-free"}, {"measurement": "outcome to day 30 post-infection", "setting": "P. berghei; WM382 30 mpk oral b.i.d. 4 days", "value": "remained parasite-free"}, {"measurement": "outcome to day 30 post-infection", "setting": "P. berghei; WM382 oral q.d. 60, 30 or 10 mpk/day, 4 days", "value": "cured all mice"}, {"measurement": "day by which mice were cleared of parasitemia", "setting": "P. falciparum; WM382 3 mpk oral q.d. 4 days from day 3", "value": "≤ 7", "unit": "days"}, {"measurement": "day by which mice were cleared of parasitemia", "setting": "P. falciparum; WM382 10 mpk oral q.d. 4 days from day 3", "value": "≤ 7", "unit": "days"}, {"measurement": "day by which mice were cleared of parasitemia", "setting": "P. falciparum; WM382 30 mpk oral q.d. 4 days from day 3", "value": "≤ 6", "unit": "days"}, {"measurement": "efficacy against P. falciparum including parasitemia clearance rate, compared with chloroquine", "setting": "P. falciparum; in vivo and in vitro", "value": "at least equivalent to chloroquine"}, {"measurement": "AUC", "setting": "[1]; 1 mg/kg, oral daily dose 1 mg/kg, read-out: AUC dose 1", "value": "0.06 ± 0.03", "unit": "µM·h"}, {"measurement": "AUC", "setting": "[1]; 1 mg/kg, oral daily dose 1 mg/kg, read-out: AUC dose 4", "value": "0.1 ± 0.04", "unit": "µM·h"}, {"measurement": "AUC", "setting": "[1]; 3 mg/kg, oral daily dose 3 mg/kg, read-out: AUC dose 1", "value": "0.5 ± 0.18", "unit": "µM·h"}, {"measurement": "AUC", "setting": "[1]; 3 mg/kg, oral daily dose 3 mg/kg, read-out: AUC dose 4", "value": "0.37 ± 0.21", "unit": "µM·h"}, {"measurement": "AUC", "setting": "[1]; 10 mg/kg, oral daily dose 10 mg/kg, read-out: AUC dose 1", "value": "2.61 ± 1", "unit": "µM·h"}, {"measurement": "AUC", "setting": "[1]; 10 mg/kg, oral daily dose 10 mg/kg, read-out: AUC dose 4", "value": "2.62 ± 1.03", "unit": "µM·h"}, {"measurement": "AUC", "setting": "[1]; 30 mg/kg, oral daily dose 30 mg/kg, read-out: AUC dose 1", "value": "7.04 ± 1.53", "unit": "µM·h"}, {"measurement": "AUC", "setting": "[1]; 30 mg/kg, oral daily dose 30 mg/kg, read-out: AUC dose 4", "value": "5.17 ± 1.22", "unit": "µM·h"}, {"measurement": "detachment of parasitized HepG2 cells at 65 hpi", "setting": "P. berghei liver stages", "value": "decrease in detachment; also recorded: reduced detachment of parasitized HepG2 cells"}, {"measurement": "egress of exoerythrocytic merozoites from hepatocytes in vitro", "setting": "P. berghei liver stages", "value": "incomplete inhibitory effect; also recorded: reduced rates"}, {"measurement": "liver parasite size and maturity at 65 hpi", "setting": "P. berghei liver stages", "value": "increased size of parasites; also recorded: accumulation of larger, mature liver parasites containing merozoites without PVM degradation"}, {"measurement": "merozoite formation by liver stages", "setting": "P. berghei liver stages", "value": "normal"}, {"measurement": "liver parasite number or size at 48 hpi", "setting": "P. berghei liver stages; HepG2 cells", "value": "did not reduce parasite number or size"}]}
